Measured values: ChEMBL document CHEMBL3400056, “Novel thiazolo[3,2-b]-1,2,4-triazoles derived from naproxen with analgesic/anti-inflammatory properties: Synthesis, biological evaluation and molecular modeling studies” (Bioorg Med Chem, 2015)

Assays:
Mus musculus [1] = assay: Analgesic activity in Swiss albino mouse assessed as latancy of withdrawing tail at 100 mg/kg, po measured after 2 hrs by tail flick test relative to control; format: functional
Mus musculus [2] = assay: Analgesic activity in Swiss albino mouse assessed as latancy of withdrawing tail at 50 mg/kg, po measured after 2 hrs by tail flick test relative to control; format: functional
Mus musculus [3] = assay: Analgesic activity in Swiss albino mouse assessed as time of licking paws at 100 mg/kg, po measured after 2 hrs by tail flick test relative to control; format: functional
Mus musculus [4] = assay: Analgesic activity in Swiss albino mouse assessed as time of licking paws at 50 mg/kg, po measured after 2 hrs by tail flick test relative to control; format: functional
Mus musculus [5] = assay: Antiinflammatory activity in Swiss albino mouse assessed as inhibition of carrageenan-induced paw edema at 50 mg/kg, po administered 1 hr prior to carrageenan challenge measured after 2 hrs relative to control; format: functional; set-up: scale not given: the % may be the effect or the level left
Mus musculus [6] = assay: Gastrointestinal toxicity in Swiss albino mouse assessed as ulcer index at 50 mg/kg, po measured after 2 hrs; format: organism-based; set-up: dose 50 mg/kg, route oral; conditions: in vivo
Mus musculus [7] = assay: Acute toxicity in Swiss albino mouse assessed as weight loss at 50 to 100 mg/kg, po measured up to 14 days; format: organism-based; set-up: dose 50-100 mg/kg, route oral; conditions: in vivo, 336 h
Mus musculus [8] = assay: Gastrointestinal toxicity in Swiss albino mouse assessed as ulcer index at 100 mg/kg, po measured after 2 hrs; format: organism-based; set-up: dose 100 mg/kg, route oral; conditions: in vivo
Mus musculus [9] = assay: Acute toxicity in Swiss albino mouse assessed as behavioral changes at 50 to 100 mg/kg, po measured up to 14 days; format: organism-based; set-up: dose 50-100 mg/kg, route oral; conditions: in vivo, 336 h
Mus musculus [10] = assay: Acute toxicity in Swiss albino mouse assessed as mortality at 50 to 100 mg/kg, po measured after 6 hrs to 14 days; format: organism-based; set-up: dose 50-100 mg/kg, route oral; conditions: in vivo
Mus musculus [11] = assay: Antiinflammatory activity in Swiss albino mouse assessed as inhibition of carrageenan-induced paw edema at 100 mg/kg, po administered 1 hr prior to carrageenan challenge measured after 2 hrs relative to control; format: functional; set-up: scale not given: the % may be the effect or the level left

Row | SMILES | MPE (Mus musculus [1]) [%] | MPE (Mus musculus [2]) [%] | MPE (Mus musculus [3]) [%] | MPE (Mus musculus [4]) [%] | Activity (Mus musculus [5]) [%] | UI (Mus musculus [6]) | Activity (Mus musculus [7]) | UI (Mus musculus [8]) | Activity (Mus musculus [9]) | Activity (Mus musculus [10]) | Activity (Mus musculus [11]) [%]
1 | COc1ccc2cc(C(C)c3nc4s/c(=C\c5ccc6ccccc6c5)c(=O)n4n3)ccc2c1 (stereo unspecified) | 32.2 | 30 | 30.3 | 17.7 | 37.9 | 2 | Non-toxic | 3.4 | Non-toxic | Non-toxic | 44.9
2 | COc1ccc2cc(C(C)c3nc4s/c(=C\c5ccccc5OCc5ccccc5)c(=O)n4n3)ccc2c1 (stereo unspecified) | 18 | 18.9 | 25.2 | 17.7 | 43 | 2.4 | Non-toxic | 2.6 | Non-toxic | Non-toxic | 33.9
3 | COc1ccc2cc(C(C)c3nc4s/c(=C\c5ccc(OCc6ccccc6)cc5)c(=O)n4n3)ccc2c1 (stereo unspecified) | 28.1 | 24.4 | 14.5 | 23.6 | 44.5 | 3 | Non-toxic | 2.7 | Non-toxic | Non-toxic | 32.5
4 | COc1ccc2cc(C(C)c3nc4s/c(=C\c5cccc(OCc6ccccc6)c5)c(=O)n4n3)ccc2c1 (stereo unspecified) | 22.3 | 24.8 | 19.2 | 21.5 | 37.9 | 2.9 | Non-toxic | 2.9 | Non-toxic | Non-toxic | 34.4
5 | COc1ccc2cc([C@H](C)C(=O)O)ccc2c1 [NAPROXEN] | 49.4 | 47.6 | 38.6 | 39.3 | 49.2 | 3.6 | – | 4.2 | – | – | 53.3
6 | COc1ccc2cc(C(C)c3nc4s/c(=C\c5cc(Br)cs5)c(=O)n4n3)ccc2c1 (stereo unspecified) | 19 | 28.7 | 21.2 | 20.1 | 43 | 2.9 | Non-toxic | 2.9 | Non-toxic | Non-toxic | 32.3
7 | COc1ccc2cc(C(C)c3nc4s/c(=C\c5ccco5)c(=O)n4n3)ccc2c1 (stereo unspecified) | 19.3 | 13.3 | 22 | 19.7 | 15.2 | 2.6 | Non-toxic | 1.9 | Non-toxic | Non-toxic | 26
8 | COc1ccc2c3c1O[C@H]1C(=O)CC[C@@]4(O)[C@@H](C2)N(C)CC[C@]314 [OXYCODONE] | 66.9 | 63.3 | 52.9 | 52.9 | 0.9 | 1.5 | – | 1.5 | – | – | 3.9
9 | COc1ccc2cc(C(C)c3n[nH]c(=S)[nH]3)ccc2c1 (stereo unspecified) | 22.2 | 16.8 | 8.2 | 18.7 | 30.1 | 2.1 | Non-toxic | 2.3 | Non-toxic | Non-toxic | 21.3
10 | COc1ccc2cc(C(C)c3nc4s/c(=C\c5ccccc5OC(C)=O)c(=O)n4n3)ccc2c1 (stereo unspecified) | 13.3 | 27.8 | 27 | 19.8 | 26.6 | 2.9 | Non-toxic | 3 | Non-toxic | Non-toxic | 44.9
11 | COc1ccc2cc(C(C)c3nc4s/c(=C\c5sccc5C)c(=O)n4n3)ccc2c1 (stereo unspecified) | 10.2 | 15.2 | 18.3 | 13.5 | 22.5 | 2.6 | Non-toxic | 2.7 | Non-toxic | Non-toxic | 19.7
12 | COc1ccc2cc(C(C)c3nc4s/c(=C\c5cccc(OC(C)=O)c5)c(=O)n4n3)ccc2c1 (stereo unspecified) | 20 | 19.2 | 20.7 | 17.5 | 31.6 | 2.9 | Non-toxic | 2.4 | Non-toxic | Non-toxic | 29.1
13 | COc1ccc2cc(C(C)c3nc4s/c(=C\c5cccs5)c(=O)n4n3)ccc2c1 (stereo unspecified) | 24.9 | 10.5 | 21.3 | 16.2 | 21.7 | 2.6 | Non-toxic | 2.3 | Non-toxic | Non-toxic | 21.2
14 | COc1ccc2cc(C(C)c3nc4s/c(=C\c5ccc(C)o5)c(=O)n4n3)ccc2c1 (stereo unspecified) | 48.6 | 38.1 | 35.3 | 23.9 | 41 | 1.3 | Non-toxic | 2.7 | Non-toxic | Non-toxic | 37
15 | COc1ccc2cc(C(C)c3nc4s/c(=C\c5ccc(OC(C)=O)cc5)c(=O)n4n3)ccc2c1 (stereo unspecified) | 18.2 | 23.3 | 19.9 | 24.9 | 36.2 | 2.9 | Non-toxic | 2.7 | Non-toxic | Non-toxic | 33.6
16 | COc1ccc2cc(C(C)c3nc4s/c(=C\c5cn(C(C)=O)c6ccccc56)c(=O)n4n3)ccc2c1 (stereo unspecified) | 28.3 | 30.8 | 18.7 | 17.5 | 37.7 | 2.7 | Non-toxic | 2.4 | Non-toxic | Non-toxic | 43.3
17 | COc1ccc2cc(C(C)c3nc4s/c(=C\C=C\c5ccccc5)c(=O)n4n3)ccc2c1 (stereo unspecified) | 30.9 | 28.4 | 24.8 | 15.8 | 36.2 | 2.4 | Non-toxic | 3.2 | Non-toxic | Non-toxic | 37
